Where two headings read alike, the source gives them in different places.
Tested on: Trichophyton rubrum
Assay: growth of strains streaked on Sabouraud agar containing the products
Format: cell-based
Conditions: Tric.Rubrum; for activity at 20 µg/mL: read-out: % DE CROISSANCE; for inhibition at 2 µg/mL / inhibition at 10 µg/mL / inhibition at 20 µg/mL / inhibition at 50 µg/mL: read-out: inhibition de la croissance
Procedure: Ces molécules ont été incorporées dans un milieu gélosé dit de Sabouraud (peptone 10g/l, glucose 10 g/l, gomme agar 15 g/l).
Des souches de diverses espèces de champignons ont été ensemencées par stries par la méthode de Stires.
Le pourcentage de croissance a été mesuré au cours du temps, pour des périodes allant jusqu'à 21 jours, pour certaines des souches testées.
Les quantités de pipéronyl butoxyde, et de cyclopyroxolamine utilisées sont identiques et sont de 10 ou 20 µg/ml dans le cas de l'association entre ces deux composés.
Dans le cas de l'association entre le pipéronyl butoxyde et l'éconazole, elles sont respectivement de 10 ou 20 µg/ml de pipéronyl butoxyde et de 1 µg/ml d'éconazole.
Des souches appartenant aux espèces suivantes ont été testées: Microsporum canis, Trichophyton rubrum, Trichophyton interdigitale, Trichophyton mentagrophytes, Microsporum persicolor, Epidermophyton floccosum, Trichophyton violaceum et Trichophyton soudanense.
L'activité du pipéronyl butoxyde seul a été testée à diverses concentrations, comme indiqué dans le tableau 1 sur le milieu de Sabouraud, dépourvu de tout autre fongicide.

## CCCCOCCOCCOCc1cc2c(cc1CCC)OCO2 [Piperonyl., pipéronyl butoxyde]
0 h, J0, 20µg/ml each product
  activity at 20 µg/mL: 0%
96 h, J4, 20µg/ml each product
  activity at 20 µg/mL: 0%
144 h, J6, 20µg/ml each product
  activity at 20 µg/mL: 20%
240 h, J10, 20µg/ml each product
  activity at 20 µg/mL: 35%
336 h, J14, 20µg/ml each product
  activity at 20 µg/mL: 50%
J+4, 2 µg/ml
  inhibition at 2 µg/mL: 15%
J+4, 10 µg/ml
  inhibition at 10 µg/mL: 10%
J+4, 20 µg/ml
  inhibition at 20 µg/mL: 0%
J+4, 50 µg/ml
  inhibition at 50 µg/mL: 0%
J+10, 2 µg/ml
  inhibition at 2 µg/mL: 90%
J+10, 10 µg/ml
  inhibition at 10 µg/mL: 60%
J+10, 20 µg/ml
  inhibition at 20 µg/mL: 35%
J+10, 50 µg/ml
  inhibition at 50 µg/mL: 0%
J+14, 2 µg/ml
  inhibition at 2 µg/mL: 100%
J+14, 10 µg/ml
  inhibition at 10 µg/mL: 75%
J+14, 20 µg/ml
  inhibition at 20 µg/mL: 50%
J+14, 50 µg/ml
  inhibition at 50 µg/mL: 0%

From EP1096933B1, “USE OF AN INHIBITOR OF CYTOCHROME P450 OPTIONALLY COMBINED WITH AN ANTIFUNGAL AGENT FOR TREATING MYCOSES” (priority 1998, dated 2000)
